Measured values from publication PMC3411647 (PLoS ONE, 2012).

Legend:
rat brain H3R = molecular target: T1, rat brain H3R (Rattus norvegicus, UniProt Q9QYN8); experiment: Competitive/saturation binding with [3H]N-α-methylhistamine, rat cerebral cortex membranes; conditions: 2 nM [3H]N-α-methylhistamine, rat cerebral cortex membranes
T1 construct: from tissue; host or cells: rat cerebral cortex membranes
Method: Figure 4 Competition binding experiments with [^3H]-N-α-methylhistamine. […] The presented data are the means ±SE of values from a single experiment performed in duplicate and are representative of three to six separate experiments.
The membranes (50 µg of protein) were incubated with [^3H] N-α-methylhistamine at various concentrations (from 0.03 nM to 50 nM) for saturation binding assays. For competitive binding assays, the membranes (50 µg of protein) were incubated with 10 nM [^3H] N-α-methylhistamine for recombinant hH3R or 2nM [^3H] N-α-methylhistamine for rat brain H3R in the presence of various compound concentrations in the buffer (50 mM Tris–HCl, pH 7.4). […] Following three washes, the membrane-bound radioactivity was measured on a Topcount (PerkinElmer) at 20°C. […] IC50 values were converted to Ki values using the Cheng-Prusoff equation. Each experiment was performed in duplicate and repeated three to six times. All data were analyzed by nonline arregression using GraphPad Prism version 4.0 software.

H3R [1] = molecular target: T2, H3R (Homo sapiens, UniProt Q9Y5N1); experiment: H3R internalization, cell-surface ELISA in HEK-293 cells stably transfected with Flag-H3R; format: cell-based; conditions: 100 µM, 45 min at 37°C
T2 construct: expressed in transfected cells
T2 sequence (Q9Y5N1 whole entry): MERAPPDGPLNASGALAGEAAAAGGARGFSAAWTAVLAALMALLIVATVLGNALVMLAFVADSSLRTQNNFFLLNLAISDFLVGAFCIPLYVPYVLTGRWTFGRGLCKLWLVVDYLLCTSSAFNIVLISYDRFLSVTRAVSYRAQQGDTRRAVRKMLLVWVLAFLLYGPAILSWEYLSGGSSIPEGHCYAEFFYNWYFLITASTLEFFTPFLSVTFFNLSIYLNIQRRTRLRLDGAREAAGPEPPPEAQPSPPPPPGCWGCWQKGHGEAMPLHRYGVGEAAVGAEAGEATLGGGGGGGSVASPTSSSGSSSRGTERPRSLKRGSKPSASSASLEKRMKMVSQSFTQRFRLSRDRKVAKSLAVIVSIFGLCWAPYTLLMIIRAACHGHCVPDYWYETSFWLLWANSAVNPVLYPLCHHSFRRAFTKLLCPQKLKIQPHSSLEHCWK
Method: ELISA data are expressed as the percentage of receptors detected on the surface of agonist-untreated cells expressing H3R. Error bars represent the SEM for four replicates.
The cell surface expression of H3R was quantitatively assessed by ELISA and performed as described previously. Briefly, HEK-293 cells stably transfected with the pCMV-H3R construct were seeded in 48-well dishes coated with poly-L-lysine. […] Medium was aspirated and the cells were washed once with Tris-buffered saline (TBS). […] Cells were then incubated for 1 h with an alkaline phosphatase-conjugated monoclonal antibody directed against the Flag epitope and diluted 1∶1,000. Cells were washed 3 times, and antibody binding was visualized by adding 0.25 mL of an alkaline phosphatase substrate (Bio-Rad). Development was stopped by adding 0.1 mL of the substrate to a 96-well microtiter plate containing 0.1 mL of 0.4 M NaOH.

H3R-EGFP = molecular target: T3, H3R-EGFP (Homo sapiens, UniProt Q9Y5N1); experiment: Recycling of internalized H3R-EGFP to the cell surface, confocal microscopy; format: cell-based; conditions: 20 µM ZEL-H16 or 500 µM histamine for 30 min, cycloheximide 100 µg/ml
T3 construct: expressed in transfected cells
T3 sequence (Q9Y5N1 whole entry): as above
Method: Figure 6 Localization of internalized H3R-EGFP stably expressed in HEK-293 cells and recycling of internalized H3R to the cell surface. […] All pictures shown are representative of at least three independent experiments.
HEK-293 cells stably expressing H3R-EGFP were seeded in covered glass-bottom 6-well plates. […] After fixing the cells with 4% paraformaldehyde for 10 min, cells were mounted in mounting reagent (DTT/PBS/glycerol). Confocal images were taken on a Zeiss LSM 510 microscope with an attached Axiovert 200 microscope and LSM5 computer system. Images were collected using QED camera software and processed with Adobe Photoshop.

H3R [2] = molecular target: T2, H3R; experiment: ERK1/2 phosphorylation (Western blot) in HEK-293 cells stably expressing H3R; format: cell-based
Method: Figure 7 Phosphorylation of ERK1/2 induced by ZEL-H16 in H3R-expressing HEK-293 cells. […] Signals were quantified by densitometric image analysis and p-ERK was normalized to a loading control (ERK). […] Concentration -dependent phosphorylation signals were quantified by densitometric analysis and p-ERK levels were normalized to total ERK levels. […] C, The phosphorylation of ERK1/2 induced by ZEL-H16 could be entirely abolished by co-incubation with H3R antagonist thioperamide (***p<0.001). Data represent the mean ±SE of three independent experiments.
HEK-293 cells stably expressing human H3R were grown in a 6-well plate and were serum starved 2 h in serum-free culture medium prior to stimulation. Cells were stimulated with the indicated H3R ligands at the designated concentrations. Incubations were stopped at the indicated times by removing the stimulation medium by aspiration. The cells were washed in ice-cold PBS and subsequently lysed in 100 µl of lysis buffer [20 mM HEPES (pH 7.5), 10 mM EDTA, 150 mM NaCl, 1% Triton X-100, and one tablet of complete protease inhibitor (Roche, Indianapolis, IN) per 50 mL] at 4°C on a rocker for 30 min. The lysates were centrifuged and separated by sodium dodecyl sulfate-polyacrylamide (12%) gel electrophoresis (SDS-PAGE) and blotted onto polyvinylidene difluoride membranes. Membranes were blocked for 1 h at room temperature in TBST (10 mmol/L Tris, 150 mmol/L NaCl, 0.1% Tween-20, pH 8.0) buffer containing 5% (v/w) skim milk. Membranes were probed overnight with primary antibodies against p-ERK1/2 (1∶1,000; Cell Signaling, Danvers, MA) in TBST containing 5% (v/w) BSA, and then probed with horseradish peroxidase-labeled secondary antibody (1∶5,000) for 1 h at room temperature in TBST containing 5% (v/w) milk powder. Immunoreactivity was detected by ECL assays. The blots were stripped and reprobed using antibodies against total ERK1/2 (1∶2,000) (Cell Signaling, Danvers, MA) as a control.

H3R [3] = molecular target: T4, H3R (Cavia porcellus, UniProt Q9JI35); experiment: Guinea-pig ileum bioassay, inhibition of electrically induced twitch
T4 construct: from tissue; host or cells: guinea-pig ileum segments
T4 sequence (Q9JI35 whole entry): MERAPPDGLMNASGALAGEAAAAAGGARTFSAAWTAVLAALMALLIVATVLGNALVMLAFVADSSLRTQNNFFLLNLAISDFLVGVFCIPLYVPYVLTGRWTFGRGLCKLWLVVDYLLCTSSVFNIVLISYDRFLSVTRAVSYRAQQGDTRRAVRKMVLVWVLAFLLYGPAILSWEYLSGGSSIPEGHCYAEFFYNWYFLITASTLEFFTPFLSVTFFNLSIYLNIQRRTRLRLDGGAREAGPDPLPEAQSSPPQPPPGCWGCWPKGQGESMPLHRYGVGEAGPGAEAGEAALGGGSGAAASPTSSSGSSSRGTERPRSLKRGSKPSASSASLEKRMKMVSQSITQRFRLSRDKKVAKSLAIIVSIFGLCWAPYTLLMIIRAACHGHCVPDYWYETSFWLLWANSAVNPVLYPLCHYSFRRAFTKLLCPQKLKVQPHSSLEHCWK
Method: Each point is the mean ± s.e.m. of three to six separate experiments.
The procedure used was as described previously. Adult male guinea pigs (300–500 g) were killed by cervical dislocation. The ileum was removed at a point 20 cm from the caecum and flushed with and placed in modified K–H buffer of following composition: 118 mM NaCl, 5.9 mM KCl, 1.2 mM CaCl2, 1.2 mM MgSO4, 1 mM Na2HPO4, 25 mM NaHCO3 and 10 mM D-glucose. Ileum segments (2.5–3 cm) were suspended in 20 ml organ baths containing K–H buffer maintained at 37°C and gassed with 95% O2/5% CO2. Contractile activity under stimulation (rectangular pulses of 15 V, 0.5 ms, and 0.1 Hz) was recorded using isometric transducers (Grass FTO3). […] Mepyramine ([…]) and famotidine ([…]) (Sigma-Aldrich, St. Louis, MO) were added to the K–H buffer to block postsynaptic H1 and presynaptic H2 receptors, respectively.

T1 sequence (Q9QYN8 whole entry): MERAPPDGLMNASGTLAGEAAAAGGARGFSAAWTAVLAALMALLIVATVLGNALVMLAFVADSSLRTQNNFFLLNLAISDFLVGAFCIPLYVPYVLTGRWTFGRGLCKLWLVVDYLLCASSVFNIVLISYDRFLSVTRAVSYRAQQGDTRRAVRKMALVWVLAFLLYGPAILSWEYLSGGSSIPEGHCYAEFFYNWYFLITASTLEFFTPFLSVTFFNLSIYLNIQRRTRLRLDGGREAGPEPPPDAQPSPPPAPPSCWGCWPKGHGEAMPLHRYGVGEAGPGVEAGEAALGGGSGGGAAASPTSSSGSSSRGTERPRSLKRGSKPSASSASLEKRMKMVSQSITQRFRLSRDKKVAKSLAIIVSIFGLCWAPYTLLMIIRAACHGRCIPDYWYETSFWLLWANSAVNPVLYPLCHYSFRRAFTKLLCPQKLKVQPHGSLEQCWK

**Q.** c1ccc2c(c1)c(CCCN1CCCCC1)cn2CCCN1CCCCC1 [ZEL-H16] was tested. Which Ki (rat brain H3R) did it give?
**A.** 4.36 ± 2 nM

**Q.** And the “loss in the expression of the receptors on the cell surface (internalization)” value (H3R [1])?
**A.** 50%

**Q.** What about the “time for internalized H3R to recycle to the cell surface after agonist removal” value (H3R-EGFP) of the same compound?
**A.** ≤ 3 h

**Q.** What about the EC50 (H3R [2]; 10 nM to 100 µM, Western-blot densitometry) of the same compound?
**A.** 1100 ± 100 nM

**Q.** And the “time of maximal ERK1/2 activation after stimulation” value (H3R [2]; 1 µM)?
**A.** 2 min

**Q.** And the Emax at 1 µM (H3R [2]; HEK293, read-out: maximal activation of ERK1/2 relative to maximal activation induced by histamine, 1 µM)?
**A.** ~50%

**Q.** And the “efficacy of inhibition of the contractions of the guinea pig ileum” value (H3R [3]; electrically induced twitch, mepyramine and famotidine present)?
**A.** 54.03±5.13%

**Q.** And the EC50 (H3R [3]; inhibition of electrically induced twitch, read-out: pD 2 (converted))?
**A.** 269 nM
